Data taken from publication PMC4728126, “Stable G protein-effector complexes in striatal neurons: mechanism of assembly and role in neurotransmitter signaling” (eLife, 2015).

Target: T1, D1R (Homo sapiens, UniProt P21728)
T1 construct: gene DRD1; cDNA from Missouri S&T cDNA Resource Center, transiently expressed in HEK293T/17 with Golf (Gαolf, Venus-Gβ2γ7), Ric-8B and masGRK3ct-Nluc BRET reporter
Assay: BRET G protein activation assay (masGRK3ct-Nluc / Venus-Gβ[…]γ[…]), HEK293T/[…]
Assay type: cell-based
Conditions: antagonist, […], against […] dopamine; Golf co-expressed

T1 sequence (P21728 whole entry): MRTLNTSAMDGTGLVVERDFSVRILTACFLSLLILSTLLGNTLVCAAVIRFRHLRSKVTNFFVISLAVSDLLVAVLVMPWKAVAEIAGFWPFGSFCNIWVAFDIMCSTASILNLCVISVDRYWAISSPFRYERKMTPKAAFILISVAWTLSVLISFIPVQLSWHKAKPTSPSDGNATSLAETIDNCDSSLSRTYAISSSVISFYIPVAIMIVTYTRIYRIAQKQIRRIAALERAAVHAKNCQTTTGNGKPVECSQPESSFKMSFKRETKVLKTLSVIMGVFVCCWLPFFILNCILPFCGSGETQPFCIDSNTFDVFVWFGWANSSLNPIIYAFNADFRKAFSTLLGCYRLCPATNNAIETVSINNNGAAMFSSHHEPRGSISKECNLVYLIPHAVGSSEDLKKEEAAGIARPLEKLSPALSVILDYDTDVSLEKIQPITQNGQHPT

For `CN1CCc2cc(Cl)c(O)cc2[C@H]2c3ccccc3CC[C@@H]21` [SCH39166], the “BRET G protein activation assay (masGRK3ct-Nluc / Venus-Gβ2γ7), HEK293T/17” value was “application of an antagonist SCH39166 facilitates complex re-association and quenching of the BRET response”.
